Reference: patent US20020010182A1, “Piperazine derivatives as tachykinin antagonists” (FUJISAWA PHARMACEUTICAL CO., LTD., priority 1995, published 2002)

Row | Compound | melting point
1 | Cl.O=C(CN1CCN(C(=O)c2cc(C(F)(F)F)cc(C(F)(F)F)c2)[C@H](Cc2c[nH]c3ccccc23)C1)c1ccc(F)c(F)c1 | 171 °C (dec.)
2 | Cl.Cl.O=C(c1cc(C(F)(F)F)cc(C(F)(F)F)c1)N1CCN(CC#CCN2CCSCC2)C[C@H]1Cc1ccc(C(F)(F)F)cc1 | 173 °C (dec.)
3 | Cc1ccc(C(=O)CN2CCN(C(=O)c3cc(C(F)(F)F)cc(C(F)(F)F)c3)[C@H](Cc3c[nH]c4ccccc34)C2)cc1.Cl | 203 °C (dec.)
4 | Cc1ccc(C[C@@H]2CN(CCCc3cccnc3)CCN2C(=O)c2cc(C(F)(F)F)cc(C(F)(F)F)c2)cc1C.Cl.Cl | 163 to 168 °C
5 | Cc1ccc(C[C@@H]2CN(Cc3ccc([N+](=O)[O-])cc3)CCN2C(=O)c2cc(C(F)(F)F)cc(C(F)(F)F)c2)cc1C.Cl.Cl | 140 °C (dec.)
6 | Cl.Cl.Cl.O=C(c1cc(C(F)(F)F)cc(C(F)(F)F)c1)N1CCN(CCCN2CCN(C3CCCCC3)CC2)C[C@H]1Cc1c[nH]c2ccccc12 | 250 °C (dec.)
7 | CN(C)c1ccc(C(=O)CN2CCN(C(=O)c3cc(C(F)(F)F)cc(C(F)(F)F)c3)[C@H](Cc3c[nH]c4ccccc34)C2)cc1 [Example 8, (2R)-1-[3,5-bis (trifluoromethyl)benzoyl]-4-(4-dimethylaminophenylcarbonylmethyl)-2-(1H-indol-3-ylmethyl]piperazine] | 185 °C (dec.)
8 | Cc1ccc(C[C@@H]2CN(CC#CCN3CCSCC3)CCN2C(=O)c2cc(C(F)(F)F)cc(C(F)(F)F)c2)cc1C.Cl.Cl | 162 to 170 °C
9 | Cl.Cl.O=C(c1cc(C(F)(F)F)cc(C(F)(F)F)c1)N1CCN(C/C=C/CN2CCSCC2)C[C@H]1Cc1ccc2ccccc2c1 | > 230 °C
10 | Cl.O=C(CN1CCN(C(=O)c2cc(C(F)(F)F)cc(C(F)(F)F)c2)[C@H](Cc2c[nH]c3ccccc23)C1)c1cccc(F)c1 | 195 °C (dec.)
11 | CC(=O)c1ccccc1C(=O)N1CCN(C(=O)c2cc(C(F)(F)F)cc(C(F)(F)F)c2)[C@H](Cc2c[nH]c3ccccc23)C1 [Example 16-(2), (2R)-4-(2-Acetylbenzoyl)-1-[3,5-bis(trifluoromethyl)benzoyl]-2-(1H-indol-3-ylmethyl)piperazine] | 190 to 192 °C
12 | COC[C@@H]1CCCN1CC#CCN1CCN(C(=O)c2cc(C(F)(F)F)cc(C(F)(F)F)c2)[C@H](Cc2ccc(C)c(C)c2)C1.Cl.Cl | 195 to 197 °C
13 | Cc1ccc(C[C@@H]2CN(C/C=C/CN3CCOCC3(C)C)CCN2C(=O)c2cc(C(F)(F)F)cc(C(F)(F)F)c2)cc1C.Cl.Cl | > 230 °C
14 | Cl.Cl.O=C(c1cc(C(F)(F)F)cc(C(F)(F)F)c1)N1CCN(CCCN2CCOCC2)C[C@H]1Cc1c[nH]c2ccccc12 | 265 °C (dec.)
15 | Cl.Cl.O=C(c1cc(C(F)(F)F)cc(C(F)(F)F)c1)N1CCN(CC#CCN2CCSCC2)C[C@H]1Cc1ccc2ccccc2c1 | 152 to 156 °C
16 | Cc1ccc(C[C@@H]2CN(CC#CCN3CCN(C4CCCCC4)CC3)CCN2C(=O)c2cc(C(F)(F)F)cc(C(F)(F)F)c2)cc1C.Cl.Cl.Cl | 175 to 190 °C

Row | Compound | melting point
17 | Cl.Cl.O=C(c1cc(C(F)(F)F)cc(C(F)(F)F)c1)N1CCN(CCN2CCOCC2)C[C@H]1Cc1c[nH]c2ccccc12 | 170 to 176 °C
18 | COCC1COCCN1CC#CCN1CCN(C(=O)c2cc(C(F)(F)F)cc(C(F)(F)F)c2)[C@H](Cc2ccc(C)c(C)c2)C1.Cl.Cl (some centres unmarked) | 140 to 155 °C
19 | Cl.Cl.O=C(c1cc(C(F)(F)F)cc(C(F)(F)F)c1)N1CCN(CC#CCN2CCSCC2)C[C@H]1Cc1cccc2ccccc12 | 191 °C (dec.)
20 | Cl.Cl.O=C(c1cc(C(F)(F)F)cc(C(F)(F)F)c1)N1CCN(CC#CCN2CCOCC2)C[C@H]1Cc1c[nH]c2ccccc12 | 165 to 169 °C
21 | Cl.O=C(CN1CCN(C(=O)c2cc(C(F)(F)F)cc(C(F)(F)F)c2)[C@H](Cc2c[nH]c3ccccc23)C1)N1CCN(C2CCCC2)CC1 | 270 °C (dec.)
22 | Cl.Cl.Cl.O=C(c1cc(C(F)(F)F)cc(C(F)(F)F)c1)N1CCN(CCCN2CCC(N3CCCCC3)CC2)C[C@H]1Cc1ccc(Cl)c(Cl)c1 | > 200 °C
23 | Cc1ccc(C[C@@H]2CN(C/C=C/CN3CCSCC3)CCN2C(=O)c2cc(C(F)(F)F)cc(C(F)(F)F)c2)cc1C.Cl.Cl | > 230 °C
24 | Cl.Cl.O=C(c1cc(C(F)(F)F)cc(C(F)(F)F)c1)N1CCN(CCCN2CC=CCC2)C[C@H]1Cc1c[nH]c2ccccc12 | > 200 °C
25 | Cl.Cl.O=C(c1cc(C(F)(F)F)cc(C(F)(F)F)c1)N1CCN(CCCN2CC3CCC(CC3)C2)C[C@H]1Cc1ccc(Cl)c(Cl)c1 | 150 °C (dec.)
26 | Cc1ccc(C(=O)CN2CCN(C(=O)c3cc(C(F)(F)F)cc(C(F)(F)F)c3)[C@H](Cc3c[nH]c4ccccc34)C2)cc1C.Cl | 166 °C (dec.)
27 | Cl.O=C(CN1CCN(C(=O)c2cc(C(F)(F)F)cc(C(F)(F)F)c2)[C@H](Cc2c[nH]c3ccccc23)C1)N1CCN(c2ccc(F)cc2)CC1 | 183 °C (dec.)
28 | Cc1ccc(C[C@@H]2CN(CCCc3cnn(C)c3)CCN2C(=O)c2cc(C(F)(F)F)cc(C(F)(F)F)c2)cc1C.Cl | 163 to 165 °C
29 | Cc1ccc(C[C@@H]2CN(CC#CCN3CCOC(CF)C3)CCN2C(=O)c2cc(C(F)(F)F)cc(C(F)(F)F)c2)cc1C.Cl.Cl (some centres unmarked) | 175 to 180 °C
30 | Cc1ccc(C[C@@H]2CN(CC#Cc3cccnc3)CCN2C(=O)c2cc(C(F)(F)F)cc(C(F)(F)F)c2)cc1C.Cl.Cl | 140 to 150 °C
31 | CC(=O)c1cccc(C(=O)N2CCN(C(=O)c3cc(C(F)(F)F)cc(C(F)(F)F)c3)[C@H](Cc3c[nH]c4ccccc34)C2)c1 [Example 16-(1), (2R)-4-(3-Acetylbenzoyl)-1-[3,5-bis(trifluoromethyl)benzoyl]-2-(1H-indol-3-ylmethyl)piperazine] | 186 to 187.5 °C
32 | O=C(c1cc(C(F)(F)F)cc(C(F)(F)F)c1)N1CCN(CCCC2(c3ccc(F)cc3)OCCO2)C[C@H]1Cc1c[nH]c2ccccc12 [Example 38, (2R)-4-[4,4-ethylenedioxy-4-(4-fluorophenyl)butyl]-1-[3,5-bis (trifluoromethyl)benzoyl]-2-(1H-indol-3-ylmethyl) piperazine] | 145 to 146 °C
